Consider 11 molecules from ChEMBL document CHEMBL1201862, “PubChem BioAssay data set” (2004).

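Where inhibition never reached the appropriate level, the endpoint shown equals the highest concentration tested. Otherwise, values were interpolated linearly from a five-concentration, 48-hour dose response in 96-well plates. Abbreviation: GI50, concentration required for 50% inhibition of growth.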 The source made the active and inactive calls. No stated cut-off is given here; in the data, active = GI50 up to about 1.1 µM and inactive = higher.

Among the test systems are A549; ACHN; CCRF-CEM; DU-145; HCT-116; HCT-15; HOP-62; MDA-MB-231; MDA-MB-435; MOLT-4; NCI-H226; NCI-H23; NCI-H522; NCI/ADR-RES; PC-3; SF-295; SNB-19; SW-620; SNB-75; SR.
Assay in all cases: inhibition of tumour cell growth, NCI panel, 48 h

For `Cc1nnc2n1N=C(c1cc(F)c(Cl)cc1Cl)/C(=C/c1ccc(Cl)cc1)S2`, the GI50 with A549 is 18 µM (inactive); in the assay on ACHN, 16.5 µM (inactive); in the assay with CCRF-CEM it was 19.1 µM (inactive); in the assay on DU-145, 17.1 µM (inactive); with HCT-116, 7 µM (inactive); with HCT-15, 13.8 µM. Moreover, the GI50 is 15.7 µM (inactive) in the assay with HOP-62; 15.8 µM (inactive) in the assay on MDA-MB-231; 13.6 µM (inactive) in the assay with MDA-MB-435; 9.91 µM (inactive) with MOLT-4; 23.2 µM (inactive) in the assay with NCI-H226; 14.5 µM (inactive) in the assay on NCI-H23. Further, the GI50 was 20.7 µM (inactive) in the assay on NCI-H522; 11.8 µM (inactive) in the assay with NCI/ADR-RES; 20.6 µM (inactive) with PC-3; 13.4 µM (inactive) with SF-295; 23.7 µM (inactive) with SNB-19; 37.7 µM (inactive) in the assay on SW-620.
For the molecule `Cc1ccc2c(c1)SC1=Nc3sc4cc(C)ccc4[n+]3CN12`, the GI50 with A549 was 2.68 µM (inactive); with ACHN it was 30.2 µM (inactive); in the assay on DU-145, 24.1 µM (inactive); with HCT-116, 10.5 µM (inactive); in the assay on HCT-15, 40.5 µM; in the assay on HOP-62, 9.57 µM (inactive). The GI50 in the assay with MDA-MB-231 was 10.8 µM (inactive); in the assay on MDA-MB-435, 4.22 µM (inactive); in the assay on MOLT-4, < 0.01 µM (active); with NCI-H226 it was 15.8 µM (inactive); in the assay on NCI-H23, 1.98 µM (inactive); in the assay with NCI-H522, 1.05 µM (active). The GI50 is 34.4 µM (inactive) in the assay on NCI/ADR-RES; 15.4 µM (inactive) with PC-3; 3.24 µM (inactive) in the assay on SNB-19; 11.4 µM (inactive) in the assay with SNB-75; 10.4 µM (inactive) in the assay on SW-620.
As for `CC(O)(c1ccccc1)c1nccc2ccccc12` (centres undefined), the GI50 was 87.3 µM (inactive) in the assay with A549; > 100 µM (inactive) in the assay with ACHN; 58.6 µM (inactive) in the assay on CCRF-CEM; > 100 µM (inactive) with DU-145; 61.4 µM (inactive) in the assay on HCT-116; 53 µM in the assay with HCT-15. In addition, the GI50 in the assay on HOP-62 was > 100 µM (inactive); with MDA-MB-231, 20.1 µM (inactive); in the assay on MDA-MB-435, 18.2 µM (inactive); in the assay on MOLT-4 it was 41.9 µM (inactive); in the assay on NCI-H226, 31.5 µM (inactive); in the assay with NCI-H23, > 100 µM (inactive). For the same molecule, the GI50 was 50.5 µM (inactive) in the assay on NCI-H522; 43.7 µM (inactive) in the assay on NCI/ADR-RES; 22.6 µM (inactive) in the assay on PC-3; 55 µM (inactive) with SF-295; > 100 µM (inactive) with SNB-19; 53.7 µM (inactive) in the assay with SNB-75. In addition, the GI50 with SW-620 was 77.6 µM (inactive).
As for `O=c1[nH][nH]c(=O)n1Cc1ccccc1Cn1c(=O)[nH][nH]c1=O`, the GI50 with A549 is > 100 µM (inactive); in the assay on ACHN, > 100 µM (inactive); with CCRF-CEM, > 100 µM (inactive); in the assay with DU-145, > 100 µM (inactive); with HCT-116, > 100 µM (inactive); in the assay with HCT-15, more than 100 µM. In addition, the GI50 with HOP-62, with MDA-MB-231, with MDA-MB-435, in the assay on MOLT-4, in the assay with NCI-H226 and with NCI-H23 was > 100 µM (inactive) each time. In addition, the GI50 in the assay on NCI-H522, in the assay on NCI/ADR-RES, with PC-3, in the assay on SF-295, in the assay with SNB-19 and in the assay with SNB-75 was > 100 µM (inactive) each time. The GI50 in the assay on SW-620 was > 100 µM (inactive).
Regarding `Cc1ccc(NC(=O)CC(=O)n2nc(C)c(/N=N/c3ccc(S(=O)(=O)CCOS(=O)(=O)O)cc3)c2C)cc1`, the GI50 in the assay on A549 was > 100 µM (inactive); in the assay on ACHN, > 100 µM (inactive); in the assay on CCRF-CEM, > 100 µM (inactive); in the assay with DU-145, > 100 µM (inactive); in the assay with HCT-116, > 100 µM (inactive); with HCT-15 it was more than 10 µM. In addition, the GI50 with HOP-62, in the assay with MDA-MB-231, in the assay on MDA-MB-435, with MOLT-4, in the assay with NCI-H226 and with NCI-H23 was > 100 µM (inactive) throughout. The GI50 in the assay with NCI-H522 was > 100 µM (inactive); with NCI/ADR-RES it was > 100 µM (inactive); in the assay with PC-3, > 100 µM (inactive); with SF-295, 97.1 µM (inactive); in the assay with SNB-19, > 100 µM (inactive); with SNB-75 it was > 100 µM (inactive). The GI50 in the assay on SW-620 is > 100 µM (inactive).
For the molecule `C=CCOC(=O)CCCCCCCCCCCCCCCOC(=O)C1=C(CCC[C@@H](C)O[Si](C)(C)C(C)(C)C)NC(=O)N2[C@H](CC3(CC/C=C\[C@H](CC)O[Si](C(C)C)(C(C)C)C(C)C)OCCO3)CC[C@H]12`, the GI50 in the assay with A549 was > 100 µM (inactive); in the assay on ACHN, > 100 µM (inactive); in the assay on CCRF-CEM, > 100 µM (inactive); in the assay with DU-145, > 100 µM (inactive); with HCT-116 it was > 100 µM (inactive); in the assay with HCT-15, more than 100 µM. In addition, the GI50 with HOP-62, with MDA-MB-231, with MDA-MB-435, with NCI-H226, in the assay on NCI-H23 and in the assay on NCI-H522 was > 100 µM (inactive) throughout. Moreover, the GI50 in the assay on NCI/ADR-RES, in the assay with PC-3, with SF-295, with SNB-19 and in the assay on SNB-75 was > 100 µM (inactive) throughout.
As to `CSc1nc(Cl)c2c(n1)Sc1nc3ccccc3n1C2O` (centres undefined), the GI50 with A549 is 7.38 µM (inactive); in the assay with ACHN, 5.89 µM (inactive); in the assay on CCRF-CEM, 1.36 µM (inactive); with DU-145, 11.4 µM (inactive); in the assay with HCT-116 it was 2.48 µM (inactive); in the assay with HCT-15, 3.4 µM. In addition, the GI50 is 13.8 µM (inactive) in the assay on HOP-62; 4.88 µM (inactive) in the assay on MDA-MB-231; 3.63 µM (inactive) in the assay on MDA-MB-435; 3.48 µM (inactive) in the assay on MOLT-4; 29.1 µM (inactive) with NCI-H226; 5.65 µM (inactive) in the assay with NCI-H23. The GI50 with NCI-H522 is 2.73 µM (inactive); with NCI/ADR-RES, 3.27 µM (inactive); in the assay with PC-3, 4.29 µM (inactive); in the assay with SF-295, 21.3 µM (inactive); in the assay on SNB-19 it was 14.4 µM (inactive); in the assay on SNB-75, 10.6 µM (inactive). Also, the GI50 with SW-620 is 3.52 µM (inactive).
For the molecule `CCC/C(Cl)=N\OC(=O)Nc1ccc(OC(F)(F)F)cc1`, the GI50 in the assay on A549 is 20.2 µM (inactive); in the assay on ACHN, 2.19 µM (inactive); in the assay on CCRF-CEM, 2.47 µM (inactive); with DU-145, 18 µM (inactive); with HCT-116, 9.4 µM (inactive); in the assay with HCT-15, 2.42 µM. For the same molecule, the GI50 in the assay on HOP-62 is 18.1 µM (inactive); in the assay on MDA-MB-231, 9.93 µM (inactive); in the assay on MDA-MB-435, 22.1 µM (inactive); in the assay with MOLT-4, 1.86 µM (inactive); in the assay with NCI-H226, 15.6 µM (inactive); in the assay on NCI-H23, 21.4 µM (inactive). Besides, the GI50 is 1.08 µM (active) with NCI-H522; 6.98 µM (inactive) in the assay with NCI/ADR-RES; 17.7 µM (inactive) with PC-3; 16.3 µM (inactive) with SF-295; 30.3 µM (inactive) in the assay with SNB-19; 15.6 µM (inactive) in the assay on SNB-75. The GI50 in the assay on SW-620 is 2.53 µM (inactive).
Turning to `O=Cc1cc(O)c(O)c(/C=N/n2c3ccccc3c3ccccc32)c1`, the GI50 in the assay with A549 is 12.8 µM (inactive); in the assay on ACHN, 4.25 µM (inactive); in the assay on CCRF-CEM it was 1.58 µM (inactive); in the assay with DU-145, 11.4 µM (inactive); in the assay with HCT-116 it was 3.37 µM (inactive); with HCT-15, 2.18 µM. For the same molecule, the GI50 in the assay with HOP-62 was 11.2 µM (inactive); in the assay with MDA-MB-231 it was 7.1 µM (inactive); with MDA-MB-435, 11.3 µM (inactive); with MOLT-4, 2.54 µM (inactive); with NCI-H226, 12.6 µM (inactive); in the assay on NCI-H23, 8.09 µM (inactive). Also, the GI50 in the assay on NCI-H522 is 2.64 µM (inactive); in the assay on PC-3, 10.1 µM (inactive); in the assay with SF-295, 8.69 µM (inactive); with SNB-19, 8.61 µM (inactive); in the assay on SNB-75 it was 2.65 µM (inactive); in the assay on SR it was 2.84 µM (inactive). Further, the GI50 with SW-620 was 5.15 µM (inactive).
Regarding `CC1(C)OC[C@@H](O)[C@H](C#N)CO1`, the GI50 is > 100 µM (inactive) with A549; > 100 µM (inactive) in the assay on ACHN; > 100 µM (inactive) with CCRF-CEM; > 100 µM (inactive) in the assay on DU-145; > 100 µM (inactive) in the assay with HCT-116; more than 100 µM in the assay on HCT-15. Besides, the GI50 in the assay with HOP-62, with MDA-MB-231, in the assay with MDA-MB-435, in the assay on MOLT-4, in the assay on NCI-H226 and in the assay with NCI-H23 was > 100 µM (inactive) throughout. Besides, the GI50 with NCI-H522, in the assay with PC-3, in the assay with SF-295, with SNB-19, with SNB-75 and with SR was > 100 µM (inactive) throughout. The GI50 in the assay with SW-620 was > 100 µM (inactive).
For the molecule `CC1(C)N=C(N)N=C(N)N1c1cccc(OCc2cccc([N+](=O)[O-])c2)c1`, the GI50 in the assay with A549 is 4.18 µM (inactive); in the assay on ACHN, > 100 µM (inactive); with CCRF-CEM, 5.4 µM (inactive); in the assay with DU-145, > 38.5 µM (inactive); in the assay with HCT-116, 5.41 µM (inactive); with HCT-15, more than 100 µM. Further, the GI50 in the assay with HOP-62 was > 76 µM (inactive); in the assay on MDA-MB-231, > 53.8 µM (inactive); with MDA-MB-435, 17.7 µM (inactive); in the assay with MOLT-4 it was 1.22 µM (inactive); in the assay with NCI-H226, > 100 µM (inactive); with NCI-H23, 7.26 µM (inactive). The GI50 with NCI-H522 is 8.91 µM (inactive); in the assay on NCI/ADR-RES, > 100 µM (inactive); in the assay on PC-3 it was 14.4 µM (inactive); in the assay with SF-295, > 55.7 µM (inactive); with SNB-19, 11.5 µM (inactive); in the assay on SNB-75 it was > 57 µM (inactive). The GI50 in the assay on SW-620 is > 85.9 µM (inactive).
